How the values were obtained:
[1] = tested on: normal NK cells expanded with K562-aAPC; experiment: percent inhibition of viability; higher = more inhibition; settings: 72 h, IL-2 2.5 ng/mL
Description: (§1)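 Drug sensitivity and resistance testing on K562-aAPC-expanded normal NK cells: 5 concentrations (10-fold steps over a 10,000-fold range), 72 h at 37 °C, viability by CellTiter-Glo normalised to DMSO and benzethonium chloride controls; DSS from the fitted curve.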

[2] = tested on: DERL-7 (IL-2 2.5 ng/mL); experiment: as above; settings: 72 h
[3] = tested on: IMC-1 (IL-2 20 ng/mL); experiment: as above; settings: 72 h
[4] = tested on: KAI3 (IL-2 2.5 ng/mL); experiment: as above; settings: 72 h
[5] = tested on: KHYG-1 (IL-2 2.5 ng/mL); experiment: as above; settings: 72 h
[6] = tested on: NK-92 (IL-2 2.5 ng/mL); experiment: as above; settings: 72 h
[7] = tested on: NK-YS (IL-2 2.5 ng/mL); experiment: as above; settings: 72 h
[8] = tested on: NKL (IL-2 2.5 ng/mL); experiment: as above; settings: 72 h
[9] = tested on: SNK-6 (IL-2 2.5 ng/mL); experiment: as above; settings: 72 h
[10] = tested on: YT (IL-2 2.5 ng/mL); experiment: as above; settings: 72 h
[11] = tested on: normal primary NK cells, pool 1 (3 donors) (IL-2 2.5 ng/mL); experiment: as above; settings: 72 h
[12] = tested on: normal primary NK cells, pool 1 (3 donors), resting (IL-2 0 ng/mL); experiment: as above; settings: 72 h
[13] = tested on: normal primary NK cells, pool 2 (3 donors) (IL-2 2.5 ng/mL); experiment: as above; settings: 72 h
[14] = tested on: normal primary NK cells, pool 3 (3 donors) (IL-2 2.5 ng/mL); experiment: as above; settings: 72 h
[15] = tested on: normal NK cells expanded with K562-aAPC; experiment: drug sensitivity score (DSS) (DSS units); higher = more sensitive; extreme values may be limits of the assay; settings: 72 h; IL-2 2.5 ng/mL
Description: as §1

[16] = tested on: DERL-7 (IL-2 2.5 ng/mL); experiment: as above; settings: 72 h
[17] = tested on: IMC-1 (IL-2 20 ng/mL); experiment: as above; settings: 72 h
[18] = tested on: KAI3 (IL-2 2.5 ng/mL); experiment: as above; settings: 72 h
[19] = tested on: KHYG-1 (IL-2 2.5 ng/mL); experiment: as above; settings: 72 h
[20] = tested on: NK-92 (IL-2 2.5 ng/mL); experiment: as above; settings: 72 h
[21] = tested on: NK-YS (IL-2 2.5 ng/mL); experiment: as above; settings: 72 h
[22] = tested on: NKL (IL-2 2.5 ng/mL); experiment: as above; settings: 72 h
[23] = tested on: SNK-6 (IL-2 2.5 ng/mL); experiment: as above; settings: 72 h
[24] = tested on: YT (IL-2 2.5 ng/mL); experiment: as above; settings: 72 h
[25] = tested on: normal primary NK cells, pool 1 (3 donors) (IL-2 2.5 ng/mL); experiment: as above; settings: 72 h
[26] = tested on: normal primary NK cells, pool 1 (3 donors), resting (IL-2 0 ng/mL); experiment: as above; settings: 72 h
[27] = tested on: normal primary NK cells, pool 2 (3 donors) (IL-2 2.5 ng/mL); experiment: as above; settings: 72 h
[28] = tested on: normal primary NK cells, pool 3 (3 donors) (IL-2 2.5 ng/mL); experiment: as above; settings: 72 h

CC(C)(C)Cn1c(N)nc2ccc(-c3[nH]c(C(C)(C)C)nc3-c3ccc(F)cc3)nc21 [Ralimetinib] (max concentration tested 10000 nM)
percent inhibition of viability [%]
Settings	1 nM	10 nM	100 nM	1000 nM	10000 nM
[1]	-3.87	-2.62	-1.53	-3.78	1.72
[2]	-0.84	3.26	3.67	8.89	48.2
[3]	-2.69	-3.53	-8.24	-9.02	-12.2
[4]	5.37	12.8	12.9	10.1	11
[5]	-1.88	-3.23	-1.97	1.06	46.9
[6]	-0.07	2.05	1.85	13.3	86.5
[7]	-3.85	0.83	1.68	3.41	13.1
[8]	0.97	4.97	7.92	17.1	70
[9]	-2.2	-16	-17.2	-21.4	9.93
[10]	1.29	1.91	4.09	6.38	55.6
[11]	-10.9	-14.6	6.91	-4.19	51.1
[12]	-14.8	-29.1	-0.22	-17.7	77
[13]	-10.8	-12.4	-9.11	-7.41	31.4
[14]	-7.2	-12.3	-15.7	-6.16	11.3

Settings	drug sensitivity score
[15]	0
[16]	4
[17]	0
[18]	0
[19]	2.57
[20]	7.03
[21]	0.28
[22]	6.44
[23]	0
[24]	4.06
[25]	2.38
[26]	3.35
[27]	1.04
[28]	0

Reference: the supplement of paper PMC5908809
